Earlier results on five compounds are cited in US20050096369A1, “Compositions and methods for treating cellular proliferation disorders” (priority 2003, published 2005).

Data set [1] concerns voltage gated calcium channels. The settings on record: cultured rat hippocampal neurons; concentration and voltage dependant (Weng et al., 2003).
A further data set relates to leukemia cells. The settings on record: Zhu Ningxi, et al.
The conditions of data set [2]: Merck Index.
Assay in data set [3]: not given
The source holds these as a separate data set.

Another data set relates to calcium-channel. As to conditions: PDR and Zhou, 2003.
Data set [4] concerns voltage-gated sodium channel. As to conditions: PDR and Zhou, 2003.
Data set [5] concerns cell lines derived from human malignancies. As to conditions: Pizer et al.

For `N=C(N)NCCCCN` [Agmatine, agmatine], the “effect on voltage gated calcium channels” value in data set [1] was “block voltage gated calcium channels”.
On to `O=C1CCC[C@@H]2[C@H]3CCC[N+]4([O-])CCC[C@@H](CN12)[C@@H]34` (stereo partly drawn) [oxymatrine], for which, for the setting “injection”, the “fate when administered by injection” value is “stable and is excreted as oxymatrine”. Besides, the “fate when taken orally” value (oral) is listed as “converted to matrine”.
In the case of `O=C1CCC[C@@H]2[C@H]3CCCN4CCC[C@@H](CN12)[C@@H]34` [matrine], the “effect on leukemia cell differentiation” value with leukemia cells is “could help leukemia cells differentiate into mature and normal white blood cells”. The “time to excretion by the kidneys” value (in vivo) is at most 24 h. For the same compound, the “stability in the blood” value (not converted by the liver) is on record as “stable in the blood”. Besides, in data set [2], the water solubility entry is listed as “water soluble”.
With `CCOC(=O)C1=C[C@]2(CC)CCCN3CCc4c(n1c1ccccc41)[C@@H]32` [vinpocetine, eburnamenine-14-carboxylic acid ethyl ester], in data set [3] (after ingestion), the “time to peak plasma levels” value is “one to one and a half”. In data set [3] (excreted in urine as apovincaminic acid), the “time in which most of a dose is excreted” value is at most 24 h. Also, the elimination half-life result in data set [3] (following ingestion) is “one to two”. Besides, the absorption entry in data set [3] (given with food) is reported as “up to 60 % of an ingested dose”. In addition, in data set [3] (on an empty stomach), the “absorption of an ingested dose” value is at least 7%. Further, the calcium-channel blocking result in the data set with calcium-channel is given as “calcium-channel blocking activity”. The “voltage-gated sodium channel blocking” value in data set [4] was “voltage-gated sodium channel blocking activity”.
On to `C/C=C/C/C=C/CCC(=O)[C@H]1O[C@H]1C(N)=O` [cerulenin], for which the cytotoxicity result in data set [5] was “selectively cytotoxic to cell lines derived from human malignancies”.
